This note sets out measurements from US4029801A, “Pharmaceutical compositions and methods of treating hypertension” (priority 1970, dated 1977).

One experiment deals with blood pressure. In words: Tests for action on the cardiovascular system: hypotensive activity (activity in method 1, rats or cats, or method 2), reported in words. Type of experiment: in vivo, rat, cat. To be noted: standard test procedure, result in words. The method, then:
Tests for action on the cardiovascular system were conducted according to one of the following procedures:
Cats were anaesthetised with pentobarbitone sodium (30 mg/kg) and the cephalic vein, femoral and carotid arteries and trachea were cannulated. The carotid cannula was introduced into the left ventricle and the femoral cannula into the aorta. Blood pressure and heart rate were recorded from the aortic cannula and left ventricular pressure from the carotid cannula. The test compunds were administered intravenously (0.1-25.6 mg/kg).
Method 2 (hypertensive rats)
Male or female rats are rendered hypertensive by applying a figure of 8 ligature around one kidney and contralateral nephrectomy. Blood pressure stabilises at a hypertensive level after 6 weeks. Systolic pressure is measured indirectly using a Decker Caudal Plethysmograph A control group of rats is run with each group treated with drug. Each group usually consists of six rats. Drugs are usually administered by the IP or oral routes. Pressures are read prior to drug administration and at two and 24 hours thereafter.

Experiment [1] has as its system blood pressure and heart rate. In words: Method 1 (rat): hypotensive activity in anaesthetised rats, i.v. To be noted: Rattus norvegicus, iv, 0.25 h, read-out: Hypotensive Activity.
Description: Rats were anaesthetised with pentobarbitone sodium (60 mg/kg) and the jugular vein, trachea and carotid artery were cannulated. […] A decrease in heart rate of more than 30% from control values was considered to be significant bradycardia.

Each structure is given as a SMILES string.

Take `COc1ccccc1OCCN1CCC(NC(=O)c2ccccc2)CC1` [Example 68, 1-[2-(2-Methoxyphenoxy)ethyl]-4-benzamidopiperidine]: the hypotensive activity entry with blood pressure is on record as “hypotensive activity”. The minimal effective dose in experiment [1] was in the range of 6.4 to 12.8 mg/kg. Turning to `O=C(NC1=CCN(CCc2ccccc2)CC1)c1ccccc1` [Example 26, 1-Phenethyl-4-benzamido-1,2,5,6-tetrahydropyridine], the hypotensive activity result in the experiment on blood pressure is given as “hypotensive activity”.

For the compound `C[N+]1(CCCC(=O)c2ccccc2)CCC(NC(=O)c2ccccc2)CC1` (stereo not drawn) [Example 82, 4-Benzamido-1-methyl-1-(4-phenyl-4-oxobutyl)piperidinium iodide], in the experiment with blood pressure, the hypotensive activity result is listed as “hypotensive activity”. In the case of `O=C(NC1CCN(CCC=C(c2ccc(F)cc2)c2ccc(F)cc2)CC1)c1ccccc1` [Example 87, 4-(4-Benzamidopiperid-1-yl)-1,1-(di-p-fluorophenyl)but-l-ene], the hypotensive activity entry with blood pressure was “hypotensive activity”. The minimal effective dose in experiment [1] came to 25.6 mg/kg. On to `Cc1cc2c(cc1C(O)CN1CCC(NC(=O)c3ccccc3)CC1)C(C)(C)CC(C)C2(C)C` (stereo not drawn) [Example 67, 7-[2-(4-Benzamidopiperid-1-yl)-1-hydroxyethyl]-1,1,3,4,4,6-Hexamethyl-1,2,3,4-tetrahydronaphthalene], for which the hypotensive activity entry with blood pressure is given as “hypotensive activity”. Consider `Cc1ccc(CCN2CCC(NC(=O)c3ccccc3)CC2)cc1C` [Example 41, 1-[2-(3,4-Dimethylphenyl)ethyl]-4-benzamidopiperidine], for which the hypotensive activity entry with blood pressure is “hypotensive activity”. Moreover, the minimal effective dose in experiment [1] was in the range of 6.4 to 12.8 mg/kg. Regarding `O=C(CCCN1CCC(NC(=O)c2ccccc2)CC1)c1ccc(Br)cc1` [Example 71, 4-Benzamido-1-[4-(4-bromophenyl)-4-oxobutyl]piperidine], in experiment [1], the minimal effective dose came to 25.6 mg/kg. As for `COc1ccc(CCN2CCC(NC(=O)c3ccccc3)CC2)cc1OC` [Example 5, 1-[2-(3,4-Dimethoxyphenyl)ethyl]-4-benzamidopiperidine], the minimal effective dose in experiment [1] is less than 30 mg/kg. As to `O=C(CCCN1CCC(NC(=O)c2ccc(Cl)cc2)CC1)c1ccccc1` [Example 76, 4-(4-Chlorobenzamido)-1-(4-phenyl-4-oxobutyl)piperidine], the hypotensive activity entry in the experiment on blood pressure was “hypotensive activity”. In addition, in experiment [1], the minimal effective dose was 6.4 to 12.8 mg/kg. Regarding `O=C(NC1CCN(CCCOc2cccc3ccccc23)CC1)c1ccccc1` [Example 55, 1-[3-(1-Naphthyloxy)-propyl]-4-benzamidopiperidine], the hypotensive activity result with blood pressure is recorded as “marked hypotensive activity”. In addition, in experiment [1], the minimal effective dose was in the range of 1.6 to 3.2 mg/kg.

Consider `O=C(NC1CCN(Cc2ccccc2)CC1)c1ccccc1` [Example 30, 1-Benzyl-4-benzamidopiperidine], for which the minimal effective dose in experiment [1] is 25.6 mg/kg. `O=C(NC1CCN(CCc2ccc3ccccc3c2)CC1)C1CCCCC1` [Example 84]: the hypotensive activity entry in the experiment with blood pressure was “hypotensive activity”. Also, the minimal effective dose in experiment [1] lay within 6.4 to 12.8 mg/kg. For `COc1ccc(CCN2CCC(NC(=O)c3ccccc3)CC2)cc1` [Example 49, 4-Benzamido-1-[2-(p-methoxyphenyl)ethyl]piperidine], the hypotensive activity result with blood pressure is on record as “hypotensive activity”. Moreover, the minimal effective dose in experiment [1] was in the range of 6.4 to 12.8 mg/kg. As to `O=C(NC1CCN(CC(O)c2ccc3c(c2)CCCC3)CC1)c1ccccc1` (stereo not drawn) [Example 57, 1-[2-(1,2,3,4-Tetrahydro-6-naphthyl)-2-hydroxyethyl]-4-benzamido-piperidine], the hypotensive activity entry in the experiment with blood pressure is on record as “hypotensive activity”. For the same compound, in experiment [1], the minimal effective dose was in the range of 1.6 to 3.2 mg/kg. As to `O=C(CCCN1CCC(NC(=O)c2ccccc2)CC1)c1ccc2ccccc2c1` [Example 80, 1-[4-(2-Naphthyl)-4-oxobutyl]-4-benzamidopiperidine], the hypotensive activity result with blood pressure is “hypotensive activity”. Moreover, the minimal effective dose in experiment [1] was 1.6 to 3.2 mg/kg. In the case of `Cc1cc(CN2CCC(NC(=O)c3ccccc3)CC2)c(C)n1-c1ccccc1` [Example 99, 1-(2,5-Dimethyl-1-phenylpyrrol-3-yl-methyl)-4-benzamidopiperidine], the hypotensive activity result in the experiment on blood pressure was “hypotensive activity”. The minimal effective dose in experiment [1] is less than 30 mg/kg. Regarding `CC(Cc1ccccc1)N1CCC(NC(=O)c2ccccc2)CC1` (stereo not drawn) [Example 78, 4-Benzamido-1-(1-phenylprop-2-yl)piperidine], the hypotensive activity result in the experiment on blood pressure is recorded as “marked hypotensive activity”. For the same compound, the minimal effective dose in experiment [1] is 6.4 to 12.8 mg/kg.

With `CC(C(=O)c1ccc(O)cc1)N1CCC(NC(=O)c2ccccc2)CC1` (stereo not drawn) [Example 64, 1-[1-Methyl-2-(4-hydroxy)phenyl-2-oxoethyl]-4-benzamidopiperidine], the minimal effective dose in experiment [1] was less than 30 mg/kg. For `O=C(CN1CCC(NC(=O)c2ccccc2)CC1)c1ccc2c(c1)CCCC2` [Example 56, 1-[2-(1,2,3,4-Tetrahydro-6-napthyl)-2-oxoethyl]-4-benzamidopiperidine], the hypotensive activity entry with blood pressure is “hypotensive activity”. Further, the minimal effective dose in experiment [1] was in the range of 6.4 to 12.8 mg/kg. Regarding `COc1ccc(C(=O)CCCN2CCC(NC(=O)c3ccccc3)CC2)cc1` [Example 77, 4-Benzamido-1-[4-(4-methoxyphenyl)-4-oxobutyl]piperidine], the minimal effective dose in experiment [1] fell in the range of 6.4 to 12.8 mg/kg. As for `Cc1cc2c(cc1C(=O)CN1CCC(NC(=O)c3ccccc3)CC1)C(C)(C)CC(C)C2(C)C` (stereo not drawn) [Example 66, 7-(4-Benzamidopiperidinoacetyl)-1,1,3,4,4,6-hexamethyl-1,2,3,4-tetrahydronaphthalene], the hypotensive activity entry in the experiment with blood pressure is listed as “hypotensive activity”. Further, the minimal effective dose in experiment [1] is 6.4 to 12.8 mg/kg.

For the compound `O=C(CCCN1CCC(NC(=O)c2ccccc2)CC1)Nc1ccccc1` [Example 50, N-Phenyl-4-(p-benzamidopiperid-1-yl)butyramide], the hypotensive activity result in the experiment on blood pressure was “hypotensive activity”. Moreover, the minimal effective dose in experiment [1] was 6.4 to 12.8 mg/kg. Consider `O=C(NC1CCN(CCCC(O)c2ccc3ccccc3c2)CC1)c1ccccc1` (stereo not drawn) [Example 83, 1-[4-(2'-Naphthyl)-4-hydroxybutyl]-4-benzamidpiperidine], for which the hypotensive activity result in the experiment on blood pressure is listed as “hypotensive activity”. Besides, the minimal effective dose in experiment [1] is 1.6 to 3.2 mg/kg. On to `O=C(NC1CCN(CCC=C(c2ccccc2)c2ccccc2)CC1)c1ccccc1` [Example 89, 4-(4-Benzamidopiperid-1-yl)-1,1-diphenylbut-l-ene], for which the hypotensive activity entry with blood pressure is listed as “hypotensive activity”. Moreover, the minimal effective dose in experiment [1] lay in the range of 6.4 to 12.8 mg/kg. Turning to `Cc1ccc(C(=O)NC2CCN(Cc3ccccc3)CC2)cc1` [Example 32, 1-Benzyl-4-(p-methylbenzamido)piperidine], in experiment [1], the minimal effective dose is less than 30 mg/kg.

In the case of `COc1cc(CCN2CCC(NC(=O)c3ccccc3)CC2)cc(OC)c1OC` [Example 8, 1-[2-(3,4,5-Trimethoxyphenyl)ethyl]-4-benzamidopiperidine], the minimal effective dose in experiment [1] is 6.4 to 12.8 mg/kg. Turning to `O=C(NC1CCN(CC(O)c2ccc[nH]2)CC1)c1ccccc1` (stereo not drawn) [Example 98, 1-[2-Hydroxy-2-(2-pyrrol-2-yl)ethyl]-4-benzamidopiperidine], the hypotensive activity entry in the experiment on blood pressure is listed as “hypotensive activity”.

Consider `Cl.O=C(NC1CCN(CCc2ccccc2)CC1)c1ccccc1` [Example 59, 1-Phenethyl-4-benzamidopiperidine hydrochloride], for which the hypotensive activity result in the experiment with blood pressure was “hypotensive activity”. The same measure, in the same setting: the entry for `O=C(NC1CCN(CCc2ccc3ccccc3n2)CC1)c1ccccc1` [Example 95, 1-[2-(2-Quinolyl)ethyl]-4-benzamidopiperidine] is “marked hypotensive activity”.
